Literature values, collected in patent publication US9272137B2, “Transdermal methods and systems for the delivery of anti-migraine compounds” (Teva Pharmaceuticals International GmbH, priority 2006, dated 2016).

For `CNS(=O)(=O)Cc1ccc2[nH]cc(CCN(C)C)c2c1` [Sumatriptan], the serum elimination half-life (in vivo) is listed as 2 h and the “time within which most of the active drug is eliminated” value (majority of patients) is listed as 4 to 6 h.
